Measured values: ChEMBL document CHEMBL5625274, “Improved synthesis, molecular modeling and anti-inflammatory activity of new fluorinated dihydrofurano-naphthoquinone compounds” (Bioorg Med Chem Lett, 2024)
Several values for one entry are separate records, joined by “and”; a condition that tells them apart may be missing. Equal entries are not always repeated.

Columns and labels:
[1] = molecular target: T1, Prostaglandin E synthase (Homo sapiens, UniProt O14684)
T1 sequence (O14684 whole entry): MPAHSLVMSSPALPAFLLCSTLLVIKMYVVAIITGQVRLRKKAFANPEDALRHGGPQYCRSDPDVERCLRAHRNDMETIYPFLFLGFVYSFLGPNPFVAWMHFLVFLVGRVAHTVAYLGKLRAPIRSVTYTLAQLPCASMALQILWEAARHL

[2] = system: RAW264.7; experiment: cells; settings: Mus musculus
[3] = in vitro; settings: mouse, RAW264.7 cells
[4] = in vitro; settings: mouse, RAW264.7 cells; at 32 µg/mL
[5] = in vitro; settings: mouse, RAW264.7 cells; at 8 µg/mL
[6] = in vitro; settings: mouse, RAW264.7 cells; at 2 µg/mL
[7] = in vitro; settings: mouse, RAW264.7 cells; at 0.5 µg/mL
[8] = system: RAW264.7; experiment: cells; settings: Mus musculus; remark: listed apart in the source
[9] = system: RAW264.7; experiment: cells; settings: Mus musculus; remark: listed apart in the source

Compound	Ki [1]	IC50 [2]	viability at 128 ug/mL [3]	viability at 32 ug/mL [4]	viability at 8 ug/mL [5]	viability at 2 ug/mL [6]	viability at 0.5 ug/mL [7]	IC50 [8]	IC50 [9]
COc1ccc([C@@H]2C3=C(O[C@H]2C(=O)c2ccccc2)C(=O)c2ccccc2C3=O)cc1F	241000 nM	1.54 µM and 0.66 µg/mL	38%	41%	51%	60%	71%	–	–
COc1ccc([C@@H]2C3=C(O[C@H]2C(=O)c2ccccc2)C(=O)c2ccccc2C3=O)c(C(F)(F)F)c1	–	> 268 µM and > 128 µg/mL	40%	100%	100%	100%	100%	–	–
COc1ccc([C@@H]2C3=C(O[C@H]2C(=O)c2ccccc2)C(=O)c2ccccc2C3=O)c(F)c1	–	–	23%	35%	38%	40%	100%	–	–
O=C1C2=C(C(=O)c3ccccc31)[C@@H](c1ccc(F)cc1)[C@H](C(=O)c1ccccc1)O2	–	15.8 µM and 6.28 µg/mL	2%	33%	69%	100%	100%	–	–
COc1c(F)cc([C@@H]2C3=C(O[C@H]2C(=O)c2ccccc2)C(=O)c2ccccc2C3=O)cc1F	–	3.52 µM and 1.57 µg/mL	22%	51%	64%	67%	85%	–	–
O=C1C2=C(C(=O)c3ccccc31)[C@@H](c1ccc(OC(F)F)c(O)c1)[C@H](C(=O)c1ccccc1)O2	–	–	2%	5%	15%	46%	71%	–	–
O=C1C2=C(C(=O)c3ccccc31)[C@@H](c1ccc(Oc3ccc(F)cc3)cc1)[C@H](C(=O)c1ccccc1)O2	–	222 µM and 109 µg/mL	29%	99%	99%	99%	100%	–	–
CCc1cc2c(o1)C(=O)c1ccccc1C2=O	–	–	–	–	–	–	–	> 2900 nM	> 2900 nM
COc1cc(F)c([C@@H]2C3=C(O[C@H]2C(=O)c2ccccc2)C(=O)c2ccccc2C3=O)cc1F	184000 nM	3.92 µM and 1.75 µg/mL	15%	16%	59%	60%	91%	–	–
CCCCc1cc2c(o1)C(=O)c1ccccc1C2=O	–	–	–	–	–	–	–	> 2900 nM	> 2900 nM
O=C1C2=C(C(=O)c3ccccc31)[C@@H](c1ccc(OC(F)(F)F)cc1)[C@H](C(=O)c1ccccc1)O2	–	> 276 µM and > 128 µg/mL	34%	70%	100%	100%	100%	–	–
O=C1C2=C(C(=O)c3ccccc31)[C@@H](c1ccccc1F)[C@H](C(=O)c1ccccc1)O2	–	–	0%	15%	20%	32%	81%	–	–
Cc1cc2c(o1)C(=O)c1ccccc1C2=O	–	–	–	–	–	–	–	< 2900 nM	< 2900 nM
O=C1C2=C(C(=O)c3ccccc31)[C@@H](c1ccc(O)cc1F)[C@H](C(=O)c1ccccc1)O2	–	–	3%	15%	19%	22%	29%	–	–
O=C1C2=C(C(=O)c3ccccc31)[C@@H](c1ccc(O)c(F)c1)[C@H](C(=O)c1ccccc1)O2	–	–	4%	10%	41%	45%	99%	–	–
